Laboratory results taken from patent US20230332232A1, “COMPOSITIONS AND METHODS FOR DIAGNOSING AND TREATING A DYSTONIA” (Duke University, priority 2020, published 2023).

System: DYT1 knockin (Tor1a^delGAG/+) murine embryonic fibroblasts (MEFs)
Test: microRNA-seq of EVs from DYT1 MEFs treated with drug, compared with non-treated DYT1 MEFs
Type: cell-based, mouse
Protocol: In addition to proteomic analysis, total RNA-seq and microRNA-seq was performed on RNA isolated in parallel from the EV samples of Cohort 2. As with the proteomic analysis, one biological replicate was prepared from 3 distinct biological clonal cell lines for each genotype. Here, EVs were isolated from conditioned cell culture media by 18 hour ultracentrifugation at 100,000 g. RNA was extracted using the Qiagen miRNeasy Micro Kit (Cat. No. 217084) according to the manufacturer's protocol. Two RNA fractions were extracted from each sample, one enriched in coding and non-coding RNA species>200 nt (“Total RNA” fraction) and one enriched for small RNAs<200 nt (“miRNA” fraction). RNA samples were then submitted to the Duke Sequencing and Genomic Technologies shared resource for further quality control and sequencing. Samples were assessed for concentration and integrity by Qubit and Fragment Analyzer. The miRNA fractions were 4.16 ng/μL-47.57 ng/μL and total RNA fractions were 3.8 ng/μL-43.6 ng/μL. The small RNA library was prepared using the QIAseq miRNA Library Kit (Cat No./ID: 331505) and sequenced on the Illumina NextSeq 500 High-Output platform with 75 bp single-reads. The total RNA library was prepared using the Illumina TruSeq Stranded Total RNA-seq Kit with Ribozero Gold ribosomal RNA reduction and sequenced on the Illumina NovaSeq 6000 S1 platform with 100 bp paired-end reads. Sequencer lane pooling and read depth are attached in the Excel data summary (See “RNA QC” Tab). Data processing and analysis were performed in collaboration with the Duke Genomic Analysis and Bioinformatics shared resource. RNA-seq data was processed using the TrimGalore toolkit (http://www.bioinformatics.babraham.ac.uk/projects/trim_galore), which employs Cutadapt(Martin M. (2011) EMBnet.journal. 17(1):10-12) to trim low quality bases and Illumina sequencing adapters from the 3' end of the reads. Only reads that were 20 nt or longer after trimming were kept for further analysis. Reads were mapped to the mouse genome and transcriptome ([…], et al. (2012) Nucleic Acids Res. 40(Database issue):[…]-97) using the STAR RNA-seq alignment tool (Dobin A, et al. (2013). Bioinformatics. 29(1):15-21). If the reads mapped to a single genomic location, then they were kept for subsequent analysis. Gene counts were compiled using the HTSeq tool (http://www-huber.embl.de/users/anders/HTSeq/). Only genes that had at least 10 reads in any given library were used in subsequent analysis. Normalization and differential expression was carried out using the DESeq26 Bioconductor (Huber W, et al. (2015) Nat Methods. 12(2):115-121) package with the R statistical programming environment (www.r-project.org). […] 694 miRNAs were initially examined with respect to QC, genotype, RTV effects, and ISRIB effects. This subset was the “Full miRNA” subset. FIG. 9A and FIG. 9B show the RTV effect on EV composition in DYT1 cells compared to WT cells for 279 miRNAs, respectively. […] Beginning with the 694 miRNAs in the “Full miRNA” subset, more than 60 molecules were detected in either WT cells or DYT1 cells (WT or Het UMI>60). […] The candidate miRNAs were ranked by the sum of genotype-dependent absolute Z-scores and RTV-induced absolute Z-scores (Abs Z Score Sum (Geno+RTV)). This subset was the “miRNA-Ritonavir Therapeutic Efficacy” subset and contained 201 miRNAs.

[1] = RTV-treated vs non-treated DYT1 (Het) MEF EVs
[2] = mmu-miR-34a-5p, EVs of DYT1 (Het) MEFs
[3] = mmu-miR-34c-5p, EVs of DYT1 (Het) MEFs
[4] = mmu-miR-96-5p, EVs of DYT1 (Het) MEFs
[5] = mmu-miR-125b-1-3p, EVs of DYT1 (Het) MEFs
[6] = mmu-miR-130b-3p, EVs of DYT1 (Het) MEFs
[7] = mmu-miR-140-3p, EVs of DYT1 (Het) MEFs
[8] = mmu-miR-148a-3p, EVs of DYT1 (Het) MEFs
[9] = mmu-miR-182-5p, EVs of DYT1 (Het) MEFs

CC(C)c1nc(CN(C)C(=O)N[C@H](C(=O)N[C@@H](Cc2ccccc2)C[C@H](O)[C@H](Cc2ccccc2)NC(=O)OCc2cncs2)C(C)C)cs1 [RTV, Ritonavir]
direction of modulated EV miRNA expression (DYT1 cells, miRNA-Ritonavir Therapeutic Efficacy subset, 201 miRNAs): modulated expression in a therapeutic direction
RTV Direction Opposite dE? (EV miRNA mmu−let−7c−5p (housekeeping)): yes
RTV Direction Opposite dE? (EV miRNA mmu−miR−22−3p): yes
RTV Direction Opposite dE? (EV miRNA mmu−miR−34a−5p): yes
RTV Direction Opposite dE? (EV miRNA mmu−miR−96−5p): yes
RTV Direction Opposite dE? (EV miRNA mmu−miR−135a−5p): yes
RTV Direction Opposite dE? (EV miRNA mmu−miR−182−5p): yes
RTV Direction Opposite dE? (EV miRNA mmu−miR−183−5p): yes
RTV Direction Opposite dE? (EV miRNA mmu−miR−199a−3p): yes
RTV Direction Opposite dE? (EV miRNA mmu−miR−296−3p): yes
RTV Direction Opposite dE? (EV miRNA mmu−miR−542−5p): yes
mmu-miR-147-5p: RTVvHet Z Score [1]: −0.07
mmu-miR-181a-1-3p: RTVvHet Z Score [1]: 0.08
mmu-miR-331-5p: RTVvHet Z Score [1]: 0.00
mmu-miR-668-3p: RTVvHet Z Score [1]: 0.31
mmu-miR-1930-5p: RTVvHet Z Score [1]: 0.00
mmu-miR-1943-5p: RTVvHet Z Score [1]: 0.23
mmu-miR-1955-5p: RTVvHet Z Score [1]: 0.00
mmu-miR-3072-5p: RTVvHet Z Score [1]: −0.38
mmu-miR-3076-3p: RTVvHet Z Score [1]: 0.00
mmu-miR-3088-3p: RTVvHet Z Score [1]: 0.18
mmu-miR-6936-3p: RTVvHet Z Score [1]: 0.00
mmu-miR-7224-3p: RTVvHet Z Score [1]: −0.17
mmu-miR-467d-3p: RTVvHet Z Score [1]: −0.11
RTVvHet Z Score (mmu-let-7a-1-3p): 0.62
RTVvHet Z Score (mmu-let-7c-2-3p): 0.62
RTV Direction Opposite dE? (mmu-let-7f-5p, EVs of DYT1 (Het) MEFs): yes
RTVvHet Z Score (mmu-let-7g-5p): 0.50
RTVvHet Z Score (mmu-let-7i-3p): 1.15
RTV Direction Opposite dE? (mmu-let-7i-5p, EVs of DYT1 (Het) MEFs): yes
RTV Direction Opposite dE? (mmu-miR-30e-5p, EVs of DYT1 (Het) MEFs): yes
RTVvHet Z Score (mmu-miR-30e-3p): 0.49
RTVvHet Z Score (mmu-miR-15a-5p): 0.22
RTVvHet Z Score (mmu-miR-16-5p): 0.21
RTVvHet Z Score (mmu-miR-17-3p): 0.02
RTV Direction Opposite dE? (mmu-miR-19b-3p, EVs of DYT1 (Het) MEFs): yes
RTVvHet Z Score (mmu-miR-22-3p): 1.26
RTV Direction Opposite dE? (mmu-miR-22-3p, EVs of DYT1 (Het) MEFs): yes
RTVvHet Z Score (mmu-miR-23a-3p): 0.46
RTVvHet Z Score (mmu-miR-25-3p): 0.71
RTV Direction Opposite dE? (mmu-miR-26b-Sp, EVs of DYT1 (Het) MEFs): yes
RTVvHet Z Score (mmu-miR-29b-3p): 0.53
RTVvHet Z Score (mmu-miR-29c-3p): 1.17
RTVvHet Z Score (mmu-miR-30a-5p): 0.97
RTV Direction Opposite dE? (mmu-miR-30a-5p, EVs of DYT1 (Het) MEFs): yes
RTVvHet Z Score (mmu-miR-30b-5p): 1.23
RTVvHet Z Score (mmu-miR-30c-5p (1st line so named)): 1.38
RTVvHet Z Score (mmu-miR-30c-5p (2nd line so named)): 1.07
RTV Direction Opposite dE? (mmu-miR-30c-5p, EVs of DYT1 (Het) MEFs): yes
RTVvHet Z Score (mmu-miR-31-3p): 0.83
RTVvHet Z Score (mmu-miR-31-5p): 1.41
RTV Direction Opposite dE? (mmu-miR-31-5p, EVs of DYT1 (Het) MEFs): yes
RTVvHet Z Score (mmu-miR-32-5p): 0.75
RTVvHet Z Score (mmu-miR-33-5p): 1.52
RTVvHet Z Score (mmu-miR-34a-5p): 1.38
Abs Z Score Sum (Geno + RTV) [2]: 3.80
RTV Direction Opposite dE? [2]: yes
RTVvHet Z Score (mmu-miR-34b-5p): 1.55
RTVvHet Z Score (mmu-miR-34c-3p): 0.78
RTVvHet Z Score (mmu-miR-34c-5p): 1.33
Abs Z Score Sum (Geno + RTV) [3]: 3.36
RTV Direction Opposite dE? [3]: yes
RTV Direction Opposite dE? (mmu-miR-93-5p, EVs of DYT1 (Het) MEFs): yes
RTVvHet Z Score (mmu-miR-96-5p): 3.10
Abs Z Score Sum (Geno + RTV) [4]: 5.01
RTV Direction Opposite dE? [4]: yes
RTVvHet Z Score (mmu-miR-98-5p): 0.42
RTVvHet Z Score (mmu-miR-99a-5p): 0.73
RTVvHet Z Score (mmu-miR-101b-3p): 0.52
RTV Direction Opposite dE? (mmu-miR-103-3p, EVs of DYT1 (Het) MEFs): yes
RTVvHet Z Score (mmu-miR-106b-3p): 0.15
RTVvHet Z Score (mmu-miR-106b-5p): 0.54
RTVvHet Z Score (mmu-miR-124-3p): −1.59
RTVvHet Z Score (mmu-miR-125b-1-3p): 1.02
Abs Z Score Sum (Geno + RTV) [5]: 3.85
RTV Direction Opposite dE? [5]: yes
RTVvHet Z Score (mmu-miR-130b-3p): 1.50
Abs Z Score Sum (Geno + RTV) [6]: 3.92
RTV Direction Opposite dE? [6]: yes
RTV Direction Opposite dE? (mmu-miR-135a-5p, EVs of DYT1 (Het) MEFs): yes
RTVvHet Z Score (mmu-miR-136-3p): 1.52
RTVvHet Z Score (mmu-miR-140-3p): 2.54
Abs Z Score Sum (Geno + RTV) [7]: 4.39
RTV Direction Opposite dE? [7]: yes
RTVvHet Z Score (mmu-miR-146a-5p): 0.10
RTVvHet Z Score (mmu-miR-148a-3p): 1.86
Abs Z Score Sum (Geno + RTV) [8]: 3.69
RTV Direction Opposite dE? [8]: yes
RTVvHet Z Score (mmu-miR-148b-3p): 0.58
RTVvHet Z Score (mmu-miR-149-5p): 0.33
RTVvHet Z Score (mmu-miR-151-5p): 0.32
RTVvHet Z Score (mmu-miR-152-3p): 0.76
RTVvHet Z Score (mmu-miR-181a-5p): 0.31
RTVvHet Z Score (mmu-miR-181b-5p): 0.54
RTVvHet Z Score (mmu-miR-181c-5p): 0.88
RTVvHet Z Score (mmu-miR-182-5p): 5.33
Abs Z Score Sum (Geno + RTV) [9]: 7.27
RTV Direction Opposite dE? [9]: yes
